# Test results reported in PubChem BioAssay (NCI).
# Values joined by “and” are separate entries in the source; they are usually repeats but may differ in a detail not shown here. Equal values may be shown once.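 Exposure lasted 48 hours, with cells grown in 96-well plates and compounds tested at five concentrations. GI50 marks 50% less growth. TGI denotes the concentration required for complete inhibition of growth.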
# What was measured:
# Experiment in all cases: growth of human tumour cells (NCI), 48 h
# 786-0 renal = tested on: 786-0 renal
# A549 NSCLC = tested on: A549 NSCLC
# ACHN renal = tested on: ACHN renal
# CAKI-1 renal = tested on: CAKI-1 renal
# CCRF-CEM leukemia = tested on: CCRF-CEM leukemia
# HS 578T breast = tested on: HS 578T breast
# KM12 colon = tested on: KM12 colon
# SN12C renal = tested on: SN12C renal
# SW-620 colon = tested on: SW-620 colon
# U251 CNS = tested on: U251 CNS
Structure (SMILES),GI50 (786-0 renal) [µM],TGI (786-0 renal),GI50 (A549 NSCLC) [µM],TGI (A549 NSCLC),GI50 (ACHN renal) [µM],TGI (ACHN renal),GI50 (CAKI-1 renal) [µM],TGI (CAKI-1 renal),GI50 (CCRF-CEM leukemia) [µM],TGI (CCRF-CEM leukemia),GI50 (HS 578T breast),TGI (HS 578T breast),GI50 (KM12 colon) [µM],TGI (KM12 colon),GI50 (SN12C renal) [µM],TGI (SN12C renal),GI50 (SW-620 colon) [µM],TGI (SW-620 colon) [µM],GI50 (U251 CNS) [µM],TGI (U251 CNS)
COc1cc(C)c(NC(=O)CN(C)C)cc1Nc1nc(Nc2cccc(F)c2C(N)=O)c2cc[nH]c2n1,4.15,8.76 µM,0.945,4.82 µM,3.81,7.35 µM,3.68,9.95 µM,0.403,4.88 µM,3.08 µM,10.2 µM,0.524,1.92 µM,3.86,8.23 µM,0.168,3.49,3.12,6.86 µM
CCN1CCN(c2ccc(Nc3ncc4ccc5ncn(C(C)C)c5c4n3)nc2)CC1,0.102,1.69 µM,0.0838,10.4 µM,0.0402,10.6 µM,0.025,0.52 µM,0.145,3.63 µM,0.155 µM,0.618 µM,0.123,0.719 µM,0.139,17.9 µM,0.0352,0.418,0.108,3.94 µM
Cc1nn(C)c2cc(N(C)c3ccnc(Nc4cccc(S(N)(=O)=O)c4)n3)ccc12,9.36,> 25 µM,8.55,> 25 µM,6.71,> 25 µM,7.17,> 22.6 µM,7.3,> 25 µM,7.26 µM,> 25 µM,7.38,> 25 µM,6.59,> 25 µM,11.3,> 25,10.8,> 25 µM
O=S(=O)(CCCCl)SCCCCl,–,33.2 µM,–,> 100 µM,–,> 100 µM,–,> 100 µM,–,47.1 µM,–,94.7 µM,–,> 100 µM,–,64.1 µM,–,42.3,–,> 69.3 µM
Cn1c(=N)n[n+]([O-])c2ccccc21,–,16 µM and 24.8 µM,–,23.1 µM and 29.8 µM,–,23.5 µM and 22 µM,–,5.86 µM and 6.18 µM,–,21.2 µM and 48.7 µM,2.85 µM and 5.89 µM,6.77 µM and 18.5 µM,–,37.8 µM and 36.7 µM,–,3.29 µM and 4.19 µM,–,> 26.8,–,25.3 µM and 24.1 µM
C=C(CN(C)C)C(=O)c1ccc(Oc2ccccc2)cc1,–,4.99 µM,–,42.6 µM,–,5.08 µM,–,6.69 µM,–,14.6 µM,–,21.7 µM,–,29.8 µM,–,16.4 µM,–,9.27,–,23.7 µM
COc1ccc2nc(-c3cc4c([nH]c5ccccc54)c(-c4ccc(F)c(F)c4)n3)[nH]c2c1,10.2,24.9 µM,4.05,17.6 µM,3.2,12.6 µM,2.41,8.97 µM,2.36,7.8 µM,8.68 µM,41.9 µM,2.93,13 µM,3.97,23.5 µM,4.82,23.7,2.77,10.2 µM
CC1=CC(=O)c2ccc(C)cc2C1=O,–,44.3 µM,–,36.9 µM,–,21 µM,–,14.9 µM,–,12.4 µM,–,> 100 µM,–,19.8 µM,–,36.6 µM,–,30.4,–,25.7 µM
